Source: patent publication US20080159995A1, “TREATMENT OF FIBROSIS” (priority 2006, published 2008)

Key:
[1] = cited from earlier work
[2] = tested on: A549 alveolar epithelial cells; assay: alveolar epithelial cell wound repair model (in vitro epithelial wound-healing assay); format: cell-based, human; conditions: mechanically wounded monolayer, FIG. 4
Method: In the present studies an alveolar epithelial cells wound repair model was employed. […] Closure of this wound was monitored over 24 hours following treatment.
The wound healing assays were performed utilising A549 alveolar epithelial cells. The epithelial repair activity was determined using an in-vitro epithelial wound-healing assay as described in Example 1 (Geiser T et al. Am J Respir Crit. Care Med. 2001; 163: 1384-1388) using human A549 alveolar epithelial-like cells (American Type Culture Collection, Rockville, Md.). Briefly, A549 epithelial cells were cultured to confluency in 12-well plates for 48 hours in minimal essential medium (MEM) containing 10% fetal bovine serum and then mechanically wounded with a pipette tip. Concentrated BALF from each patient was added to the wounded epithelial monolayers (experiments performed in triplicates) and the area of the wound was measured over a time period of 24 hours.

[3] = tested on: Transforming Growth Factor (TGF)-β-Connective Tissue Growth Factor (CTGF) interactions via a Rho signalling pathway; conditions: recent studies, refs 1 and 2; cited from earlier work

Row | Structure (SMILES) | solubility in acetonitrile ([1]; acetonitrile) | solubility in ethanol ([1]; ethanol) | solubility in methanol ([1]; methanol) | solubility in water ([1]; water) | wound closure [2] | anti-fibrotic potential (TGF-β-CTGF interactions, pro-fibrotic differentiation) [3]
1 | CCC(C)C(=O)OC1CC(C)C=C2C=CC(C)C(CCC3CC(O)CC(=O)O3)C21 (stereo not drawn) [Lovastatin, [8-[2-(4-hydroxy-6-oxo-oxan-2-yl)ethyl]-3,7-dimethyl-1,2,3,7,8,8a-hexahydronaphthalen-1-yl]2-methylbutanoate] | sparingly soluble | sparingly soluble | sparingly soluble | insoluble |  | 
2 | CCC(C)(C)C(=O)O[C@H]1C[C@@H](C)C=C2C=C[C@@H](C)[C@H](CC[C@@H]3C[C@@H](O)CC(=O)O3)[C@H]21 [simvastatin, [(1S,3R,7R,8S,8aR)-8-[2-[(2R,4R)-4-hydroxy-6-oxo-oxan-2-yl]ethyl]-3,7-dimethyl-1,2,3,7,8,8a-hexahydronaphthalen-1 yl]2,2-dimethylbutanoate] |  |  |  |  | improves wound closure | over-riding Transforming Growth Factor (TGF)-β-Connective Tissue Growth Factor (CTGF) interactions
